In assay [1] the test system is phospho-ATM, phospho-γH2AX, PARP cleavage in Raji/COMPOUND IR cells. The experiment in a line: Western blot of phospho-ATM, γH2AX and cleaved PARP. Format: cell-based, human. The note with it: 0.5 μM, 24 h. The protocol:
Only when the Raji/COMPOUND IR cells were treated with at least 3 times as much COMPOUND I did the intracellular content of Fe(COMPOUND I)3 finally reach a level similar to that in the sensitive cells (FIG. 4D).

Assay [2] relates to EOL-1. The experiment in a line: Cytotoxicity study (MTS), 5 days. Format: cell-based. The note with it: Homo sapiens, EOL1; AML. The protocol: (§1) EOL-1, GRANTA-519, Jeko-1, Jurkat, Molm-13, NOMO-1, SKM-1, and SU-DHL-6 were obtained from Leibniz-Institut DSMZ. HL-60, KG-1, Mino, MV4-11, Raji, and THP-1 were obtained from ATCC. HEL92.1.7 were obtained from the European Collection of Authenticated Cell Cultures and Ramos cells were a gift from Dr. M. Andreeff (MD Anderson Cancer Center, Houston, Tex.). All cells were cultured in complete media as per the manufacturer's instructions. Early passage cells were collected and frozen within 1 month of receipt from the manufacturer. All experiments were performed on early passage cells within 6 weeks of thawing. MycoScope Mycoplasma Detection Kit (Genlantis catalog #MY01050) was used to screen for potential contamination every 6 months. Peripheral blood mononuclear cells (PBMC) were isolated from fresh healthy donor blood using Ficoll-Paque PLUS (GE Healthcare, catalog #17-1440-02). For synthesis of COMPOUND I free base, 10-phenanthroline-5,6-dione (1.2 equivalents), acetic acid (22 volumes), 2-methyl-5-fluoroindole-3-carboxaldehyde (1.0 equivalents), and ammonium acetate (15 equivalents) were reacted under medium agitation while heated at 95±5° C. for 3 to 7 hours. The reaction was cooled to between 20° C. and 25° C., filtered, rinsed with acetic acid and ethanol, and dried with N2 purge, followed by a wash with 2:1 ethanol:water at 65° C. for 4 hours, cooling to 20° C. to 25° C., filtration, rinsing with 2:1 ethanol:water and EtOAc, and then dried with N2 purge. The purity by HPLC was 99.5%, and the structural identity was confirmed by FT-IR, ^1HNMR, ^13C NMR, and LC/MS. For Fe(COMPOUND I)3 synthesis, five molar equivalents of ferrous ion FeSO4 in water was added to COMPOUND I dissolved in ethanol. The deep red precipitate produced, Fe(COMPOUND I)3, was collected and dissolved in DMSO and characterized by HPLC and mass spectrometry as >95% pure. CX-5461 (7) was purchased from MedChem Express (catalog #HY-13323).
(§2) Cells were plated and treated with vehicle DMSO or COMPOUND I (10 concentrations) in 96-well plates for 5 days at 37° C. and 5% CO2. Cell viability was measured using CellTiter 96 AQueous one solution (MTS) cell proliferation assay (Promega, catalog #G3581), and IC50 values were calculated using GraphPad Prism 7 software.

Assay [3] relates to GRANTA-519. The experiment in a line: Cytotoxicity study (MTS), 5 days. Format: cell-based. The note with it: Homo sapiens, MCL. The protocol:
as §1, §2

The subject of assay [4] is HEL92.1.7. The experiment in a line: Cytotoxicity study (MTS), 5 days. Format: cell-based. The note with it: Homo sapiens, HEL 92.1.7; AML. The protocol: as §1, §2
Assay [5] has as its system HL-60. The assay is described as follows: Cytotoxicity study (MTS), 5 days. The note with it: Homo sapiens, AML. Format: cell-based. The protocol: as §1, §2
Assay [6] deals with Jeko-1. The assay is described as follows: Cytotoxicity study (MTS), 5 days. The note with it: Homo sapiens, MCL. Format: cell-based. How it is done:
as §1, §2

For assay [7], the system named is Jurkat. The assay is described as follows: Cytotoxicity study (MTS), 5 days. Format: cell-based. To be noted: Homo sapiens, T-ALL. How it is done: as §1, §2
For assay [8], the system named is KG-1. The assay is described as follows: Cytotoxicity study (MTS), 5 days. Format: cell-based. To be noted: Homo sapiens, AML. How it is done:
as §1, §2

Assay [9] has as its system MOLM-13. The assay is described as follows: Cytotoxicity study (MTS), 5 days. Format: cell-based. The note with it: Homo sapiens, AML. How it is done:
as §1, §2

Assay [10] relates to Mino. The assay is described as follows: Cytotoxicity study (MTS), 5 days. Format: cell-based. The note with it: Homo sapiens, MCL. The protocol:
as §1, §2

The subject of assay [11] is Nomo-1. The experiment in a line: Cytotoxicity study (MTS), 5 days. Format: cell-based. To be noted: Homo sapiens, AML. How it is done:
as §1, §2

Assay [12] has as its system Raji. The experiment in a line: Cytotoxicity study (MTS), 5 days. The note with it: Homo sapiens, Burkitt's. Format: cell-based. How it is done:
as §1, §2

The subject of assay [13] is Ramos. The experiment in a line: Cytotoxicity study (MTS), 5 days. Format: cell-based. The note with it: Homo sapiens, Burkitt's. The protocol:
as §1, §2

Assay [14] has as its system SKM-1. The experiment in a line: Cytotoxicity study (MTS), 5 days. Format: cell-based. To be noted: Homo sapiens, AML. The protocol:
as §1, §2

Assay [15] deals with SUDHL-6. The assay is described as follows: Cytotoxicity study (MTS), 5 days. Format: cell-based. To be noted: Homo sapiens, SU-DHL-6; DLBCL. The protocol: as §1, §2
The subject of assay [16] is THP1. The experiment in a line: Cytotoxicity study (MTS), 5 days. To be noted: Homo sapiens, THP-1; AML. Format: cell-based. The protocol:
as §1, §2

The subject of assay [17] is TP53, phos-CHEK1, γH2AX, MAPK14, MAPK8 in MV4-11 cells. The experiment in a line: Western blot of DNA damage and cell stress pathways. Format: cell-based. To be noted: 500 nmol/L. How it is done: Cells were treated as described above. Whole-cell lysates were prepared, separated by SDS-PAGE, and transferred to nitrocellulose membranes. Densitometry was performed using ImageJ or Image Studio Lite Version5.2 software and normalized to the density of GAPDH.
The increase in total protein was concomitant with an increase in phospho-Ser15 and acetyl-K382 (FIG. 12B). TP53 is phosphorylated at Ser15 and Ser20 in response to DNA damage, which reduces MDM2 binding and proteasomal degradation of p53. Furthermore, p53 is acetylated in response to cellular stress, and this modification can further stabilize TP53 protein levels and modulate binding activity. Activation of TP53 can trigger apoptosis through upregulation of proapoptotic factors such as BBC3 (PUMA), PMAIP1 (NOXA), and BAX. […] A concentration-dependent increase in ? H2AX was detected in all AML lines tested, thereby adding further credence to the concept that COMPOUND I triggers the DDR pathway (FIG. 12D).
On the technique in general: In western blotting, separated proteins are transferred to a membrane and probed.

The IC50 is the concentration that gives 50% inhibition. Read a low IC50 as higher potency. With `Cc1[nH]c2ccc(F)cc2c1-c1nc2c3cccnc3c3ncccc3c2[nH]1` [COMPOUND I, 2-(5-fluoro-2-methyl-1H-indol-3-yl)-1H-imidazo[4,5-f][1,10]phenanthroline], the “phospho-ATM, phospho-γH2AX, PARP cleavage” value in assay [1] is “no increase in phospho-ATM or phospho-γH2AX, and no detectable PARP cleavage”. Moreover, the concentration for half-maximal inhibition (IC50) turned out to be 0.3 µM in assay [2]; 0.082 µM in assay [3]; 1.75 µM in assay [4]; 0.46 µM in [5]; 0.057 µM in assay [6]; 0.52 µM in [7]. In addition, the concentration for half-maximal inhibition (IC50) was 0.51 µM in [8]; 0.14 µM in assay [9]; 0.23 µM in assay [10]; 1.45 µM in assay [11]; 0.1 µM in [12]; 0.35 µM in [13]. The IC50 is 0.48 µM in assay [14], 0.51 µM in assay [15] and 0.34 µM in assay [16]. In addition, in assay [17], the “time at which an increase in phos-CHEK1 was detected” value was found to be 1 h. For the same compound, the “time of phos-CHEK1 peak” value in [17] is on record as “approximately 4 hours”. Further, the “MAPK14 and MAPK8 phosphorylation” value in [17] (4- to 6-hour treatment) is “increase in both MAPK14 phos-T180 and MAPK8 phos-Thr183/pTyr185”. Besides, the “DDR marker γH2AX” value in assay [17] (by 6 hours) is listed as “robust increase”. In assay [17] (1, 3, and 6 hours), the TP53 levels result is reported as “significant increase in TP53 levels”.

For the origin of these results see patent publication US11149047B2, “Aryl imidazoles for treatment of cancer” (Aptose Biosciences Inc., priority 2017, dated 2021).
